Test results published in patent US10874635B2, “Tocotrienol compositions” (First Tech International Limited, priority 2011, dated 2020).

Assay: Viscosity measurement of vitamin E, MCT and binary blends
Format: physicochemical
Conditions: 23 °C
Description: Viscosity of vitamin E, MCT, and their binary mixtures was measured using an advanced rheometer from TA Instruments Ltd, New Castle, Del. model number AR 2000. A cone and plate geometry was used with a steel plate radius of 40 mm and a cone angle of 2°. The gap between the cone and plate geometry was set at 100 μm. Rheological measurements were made at 23° C. The rheometer was fitted with a Peltier temperature control system, which was monitored during the experiments. For each test, approximately 1 g of vitamin E, MCT, or their binary mixtures was placed between the plates. Preliminary studies were conducted to optimize instrument parameters. Once the system was optimized, a continuous ramp method was used. The shear stress was measured at varying shear rates from 1 to 100 s−1 for a period of 5 minutes. All rheological measurements were carried out in triplicates. Data were analyzed using rheology software namely TA Rheology Advantage software, Version 2.3.
The viscosity of the blends decreased from a high of 3700 mPa·s for vitamin E alone to a low of 27 mPa·s, which is the viscosity of pure MCT. […] Therefore, two levels of vitamin E loading in the emulsion were evaluated in this study representing a high viscosity system at a 70/30 ratio and a low viscosity system at a 30/70 ratio of vitamin E to MCT. […]

(±)-α-Tocopherol [vitamin E]
viscosity: 3700 mPa·s
